# Test results published in ChEMBL document CHEMBL4304811, “Development of a Water-Soluble Indolylmaleimide Derivative IM-93 Showing Dual Inhibition of Ferroptosis and NETosis” (ACS Med Chem Lett, 2019).
# How the values were obtained:
# [1] = target: Phosphorylase b kinase gamma catalytic chain, liver/testis isoform (Homo sapiens) (UniProt P15735); assay: Binding affinity to wild-type human partial length PHKG2 (M1 to W300 residues) expressed in bacterial expression system assessed as residual binding level at 10 uM by Kinomescan method relative to control
# [2] = target: Tyrosine-protein kinase Fes/Fps (Homo sapiens) (UniProt P07332); assay: Binding affinity to wild-type human partial length FES (I527 to R822 residues) expressed in bacterial expression system assessed as residual binding level at 10 uM by Kinomescan method relative to control
# [3] = target: Tyrosine-protein kinase JAK1 (Homo sapiens) (UniProt P23458); assay: Binding affinity to wild-type human partial length JAK1 JH1 catalytic domain (V856 to K1154 residues) expressed in bacterial expression system assessed as residual binding level at 10 uM by Kinomescan method relative to control
# Sequence of Tyrosine-protein kinase JAK1 (Homo sapiens) (P23458 whole entry, the tested form may be a part): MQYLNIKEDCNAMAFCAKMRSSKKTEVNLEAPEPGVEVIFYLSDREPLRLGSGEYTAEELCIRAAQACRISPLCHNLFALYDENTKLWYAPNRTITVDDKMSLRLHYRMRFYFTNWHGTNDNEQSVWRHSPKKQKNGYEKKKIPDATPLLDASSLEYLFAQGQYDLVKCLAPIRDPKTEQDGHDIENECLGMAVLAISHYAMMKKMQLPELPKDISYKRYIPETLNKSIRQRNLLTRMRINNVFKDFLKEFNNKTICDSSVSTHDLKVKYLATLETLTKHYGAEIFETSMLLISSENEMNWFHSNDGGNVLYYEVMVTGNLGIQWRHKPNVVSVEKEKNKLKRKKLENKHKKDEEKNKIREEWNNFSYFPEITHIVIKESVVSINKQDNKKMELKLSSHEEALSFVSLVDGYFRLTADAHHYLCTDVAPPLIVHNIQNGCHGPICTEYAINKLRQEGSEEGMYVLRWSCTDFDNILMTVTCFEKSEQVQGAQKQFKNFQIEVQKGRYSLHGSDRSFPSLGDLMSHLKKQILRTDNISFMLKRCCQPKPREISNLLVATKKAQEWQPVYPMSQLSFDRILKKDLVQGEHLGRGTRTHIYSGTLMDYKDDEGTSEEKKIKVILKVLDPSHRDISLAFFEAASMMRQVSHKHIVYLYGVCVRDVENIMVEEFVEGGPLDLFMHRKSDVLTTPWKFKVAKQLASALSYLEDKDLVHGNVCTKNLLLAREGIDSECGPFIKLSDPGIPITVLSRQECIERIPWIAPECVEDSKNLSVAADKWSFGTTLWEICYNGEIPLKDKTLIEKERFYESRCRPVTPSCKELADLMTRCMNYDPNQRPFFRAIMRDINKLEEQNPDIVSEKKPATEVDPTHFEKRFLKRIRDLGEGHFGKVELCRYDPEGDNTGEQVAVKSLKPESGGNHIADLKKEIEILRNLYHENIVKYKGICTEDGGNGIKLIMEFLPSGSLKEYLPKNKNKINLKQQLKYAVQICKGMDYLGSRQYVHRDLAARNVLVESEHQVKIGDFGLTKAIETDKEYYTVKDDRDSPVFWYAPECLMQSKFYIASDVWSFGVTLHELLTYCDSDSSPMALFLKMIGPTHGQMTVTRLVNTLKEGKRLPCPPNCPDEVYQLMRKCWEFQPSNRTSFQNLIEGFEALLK
# [4] = target: Mitogen-activated protein kinase 11 (Homo sapiens) (UniProt Q15759); assay: Binding affinity to wild-type human full length p38-beta (M1 to Q364 residues) expressed in bacterial expression system assessed as residual binding level at 10 uM by Kinomescan method relative to control
# [5] = target: Macrophage colony-stimulating factor 1 receptor (Homo sapiens) (UniProt P07333); assay: Binding affinity to wild-type human partial length autoinhibited CSF1R (Y538 to S939 residues) expressed in mammalian expression system assessed as residual binding level at 10 uM by Kinomescan method relative to control
# Sequence of Macrophage colony-stimulating factor 1 receptor (Homo sapiens) (P07333 whole entry, the tested form may be a part): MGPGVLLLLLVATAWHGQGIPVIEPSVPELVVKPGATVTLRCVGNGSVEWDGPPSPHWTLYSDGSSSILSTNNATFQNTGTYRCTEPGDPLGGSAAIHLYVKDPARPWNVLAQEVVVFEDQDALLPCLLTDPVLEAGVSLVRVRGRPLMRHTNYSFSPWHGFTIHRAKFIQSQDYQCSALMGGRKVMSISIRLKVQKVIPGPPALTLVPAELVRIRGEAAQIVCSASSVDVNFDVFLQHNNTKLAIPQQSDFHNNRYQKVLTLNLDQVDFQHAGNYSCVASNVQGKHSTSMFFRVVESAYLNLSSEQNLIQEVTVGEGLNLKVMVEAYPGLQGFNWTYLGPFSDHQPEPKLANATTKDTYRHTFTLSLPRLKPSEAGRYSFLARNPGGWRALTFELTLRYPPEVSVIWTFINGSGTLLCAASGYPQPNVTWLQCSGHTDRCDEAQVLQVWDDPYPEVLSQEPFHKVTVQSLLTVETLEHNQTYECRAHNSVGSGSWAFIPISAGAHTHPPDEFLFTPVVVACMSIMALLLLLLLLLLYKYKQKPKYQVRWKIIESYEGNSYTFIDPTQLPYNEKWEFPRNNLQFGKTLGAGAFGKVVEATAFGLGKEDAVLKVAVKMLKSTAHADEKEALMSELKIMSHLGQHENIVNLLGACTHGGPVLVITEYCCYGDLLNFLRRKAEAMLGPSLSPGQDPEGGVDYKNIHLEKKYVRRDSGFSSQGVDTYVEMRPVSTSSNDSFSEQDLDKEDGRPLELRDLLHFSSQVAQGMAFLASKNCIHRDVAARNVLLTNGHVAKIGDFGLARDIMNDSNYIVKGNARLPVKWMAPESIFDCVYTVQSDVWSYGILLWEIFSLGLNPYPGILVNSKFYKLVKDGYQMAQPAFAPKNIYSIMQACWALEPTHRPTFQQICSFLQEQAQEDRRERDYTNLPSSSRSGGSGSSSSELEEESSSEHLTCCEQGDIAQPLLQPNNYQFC
# [6] = system: Epidermal growth factor receptor (Homo sapiens), P00533 [UNDEFINED MUTATION]; assay: Binding affinity to human partial length EGFR L747-T751del/Sins mutant expressed in bacterial expression system assessed as residual binding level at 10 uM by Kinomescan method relative to control
# [7] = target: cGMP-dependent protein kinase 2 (Homo sapiens) (UniProt Q13237); assay: Binding affinity to wild-type human partial length PRKG2 (S422 to F762 residues) expressed in mammalian expression system assessed as residual binding level at 10 uM by Kinomescan method relative to control
# Sequence of cGMP-dependent protein kinase 2 (Homo sapiens) (Q13237 whole entry, the tested form may be a part): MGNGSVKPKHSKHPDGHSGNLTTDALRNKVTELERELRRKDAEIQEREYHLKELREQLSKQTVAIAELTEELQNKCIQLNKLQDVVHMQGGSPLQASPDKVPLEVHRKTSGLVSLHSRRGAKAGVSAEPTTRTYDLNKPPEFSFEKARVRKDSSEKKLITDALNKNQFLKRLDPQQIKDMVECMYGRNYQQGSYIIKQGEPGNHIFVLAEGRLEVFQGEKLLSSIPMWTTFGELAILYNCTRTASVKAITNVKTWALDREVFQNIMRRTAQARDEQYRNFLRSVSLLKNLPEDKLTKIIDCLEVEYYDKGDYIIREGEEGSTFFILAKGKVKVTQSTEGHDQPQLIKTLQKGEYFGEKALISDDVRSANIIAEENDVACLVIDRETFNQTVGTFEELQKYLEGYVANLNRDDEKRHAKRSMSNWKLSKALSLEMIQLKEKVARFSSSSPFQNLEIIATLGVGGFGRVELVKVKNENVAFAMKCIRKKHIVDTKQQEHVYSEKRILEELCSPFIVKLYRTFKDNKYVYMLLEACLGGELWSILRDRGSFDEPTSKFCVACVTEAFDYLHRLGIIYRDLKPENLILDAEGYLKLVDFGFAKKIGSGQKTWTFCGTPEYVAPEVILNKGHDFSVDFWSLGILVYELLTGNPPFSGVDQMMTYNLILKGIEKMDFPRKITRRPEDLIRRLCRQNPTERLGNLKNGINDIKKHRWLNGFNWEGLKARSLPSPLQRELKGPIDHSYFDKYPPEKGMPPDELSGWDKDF
# [8] = system: Tyrosine-protein kinase ABL1 (Homo sapiens), P00519 [H396P]; assay: Binding affinity to human non-phosphorylated ABL1 H396P mutant (S229 to K512 residues) expressed in mammalian expression system assessed as residual binding level at 10 uM by Kinomescan method relative to control
# HL-60 = assay: Cytoprotection against human HL60 cells assessed as inhibition of H2O2-induced cell death pretreated for 1 hr followed by H2O2 stimulation measured after 3 hrs by p-iodonitrotetrazolium violet dye based LDH assay; type: functional
# [9] = target: CDK4/Cyclin D3 (Homo sapiens) (UniProt P11802+P30281); assay: Binding affinity to wild-type human full length CDK4/cyclinD3 (M1 to E303 residues) expressed in mammalian expression system assessed as residual binding level at 10 uM by Kinomescan method relative to control
# [10] = system: Proto-oncogene tyrosine-protein kinase receptor Ret (Homo sapiens), P07949 [V804M]; assay: Binding affinity to human partial length RET V804M mutant (E713 to D1014 residues) expressed in bacterial expression system assessed as residual binding level at 10 uM by Kinomescan method relative to control
# [11] = target: Calcium/calmodulin-dependent protein kinase type II subunit alpha (Homo sapiens) (UniProt Q9UQM7); assay: Binding affinity to wild-type human partial length CAMK2A (M1 to K328 residues) expressed in bacterial expression system assessed as residual binding level at 10 uM by Kinomescan method relative to control
# Sequence of Calcium/calmodulin-dependent protein kinase type II subunit alpha (Homo sapiens) (Q9UQM7 whole entry, the tested form may be a part): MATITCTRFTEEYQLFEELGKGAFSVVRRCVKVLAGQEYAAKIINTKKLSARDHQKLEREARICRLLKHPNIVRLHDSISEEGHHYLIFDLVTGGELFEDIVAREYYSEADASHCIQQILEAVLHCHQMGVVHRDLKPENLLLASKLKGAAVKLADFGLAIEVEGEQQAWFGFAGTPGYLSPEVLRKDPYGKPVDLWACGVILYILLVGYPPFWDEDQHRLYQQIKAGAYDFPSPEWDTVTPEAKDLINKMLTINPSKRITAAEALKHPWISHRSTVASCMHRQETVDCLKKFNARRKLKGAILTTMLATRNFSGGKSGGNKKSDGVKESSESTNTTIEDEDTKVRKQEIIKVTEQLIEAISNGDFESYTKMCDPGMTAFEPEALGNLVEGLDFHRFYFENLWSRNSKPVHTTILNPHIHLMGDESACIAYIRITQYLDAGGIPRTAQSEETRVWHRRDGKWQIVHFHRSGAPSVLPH
# [12] = target: Serine/threonine-protein kinase PLK4 (Homo sapiens) (UniProt O00444); assay: Binding affinity to wild-type human partial length PLK4 (M1 to S273 residues) expressed in mammalian expression system assessed as residual binding level at 10 uM by Kinomescan method relative to control
# [13] = system: Mast/stem cell growth factor receptor Kit (Homo sapiens), P10721 [A829P]; assay: Binding affinity to human partial length KIT A829P mutant (I571 to D952 residues) expressed in mammalian expression system assessed as residual binding level at 10 uM by Kinomescan method relative to control
# Sequence of Mast/stem cell growth factor receptor Kit (Homo sapiens), P10721 [A829P] (P10721 whole entry A829P, the tested form may be a part): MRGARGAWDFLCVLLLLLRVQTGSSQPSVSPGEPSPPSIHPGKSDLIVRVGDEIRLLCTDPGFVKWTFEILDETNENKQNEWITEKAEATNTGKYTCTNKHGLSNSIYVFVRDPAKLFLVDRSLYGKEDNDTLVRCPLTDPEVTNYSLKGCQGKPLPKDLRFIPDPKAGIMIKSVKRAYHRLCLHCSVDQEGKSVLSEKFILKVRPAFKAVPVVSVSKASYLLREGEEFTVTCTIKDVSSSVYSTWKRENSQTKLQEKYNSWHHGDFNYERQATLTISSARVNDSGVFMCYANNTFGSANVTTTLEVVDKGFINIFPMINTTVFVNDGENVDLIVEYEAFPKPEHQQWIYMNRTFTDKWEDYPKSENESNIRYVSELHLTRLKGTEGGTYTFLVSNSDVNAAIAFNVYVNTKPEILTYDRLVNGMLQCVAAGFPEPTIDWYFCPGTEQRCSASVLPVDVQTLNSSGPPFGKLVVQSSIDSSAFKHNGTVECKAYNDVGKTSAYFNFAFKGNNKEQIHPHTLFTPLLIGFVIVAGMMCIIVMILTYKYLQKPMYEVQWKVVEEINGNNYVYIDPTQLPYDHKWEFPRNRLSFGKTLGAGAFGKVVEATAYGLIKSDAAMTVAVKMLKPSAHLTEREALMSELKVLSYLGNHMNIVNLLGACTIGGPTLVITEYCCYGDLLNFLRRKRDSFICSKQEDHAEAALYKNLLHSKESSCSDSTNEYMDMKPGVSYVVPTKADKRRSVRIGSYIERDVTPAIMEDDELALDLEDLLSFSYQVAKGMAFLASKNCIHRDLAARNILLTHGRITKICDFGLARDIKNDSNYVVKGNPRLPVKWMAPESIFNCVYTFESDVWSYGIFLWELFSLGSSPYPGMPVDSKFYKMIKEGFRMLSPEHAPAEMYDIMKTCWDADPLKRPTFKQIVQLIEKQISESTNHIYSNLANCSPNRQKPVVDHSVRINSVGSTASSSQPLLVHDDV
# [14] = target: Aurora kinase B (Homo sapiens) (UniProt Q96GD4); assay: Binding affinity to wild-type human partial length AURKB (D25 to A303 residues) expressed in mammalian expression system assessed as residual binding level at 10 uM by Kinomescan method relative to control
# Sequence of Aurora kinase B (Homo sapiens) (Q96GD4 whole entry, the tested form may be a part): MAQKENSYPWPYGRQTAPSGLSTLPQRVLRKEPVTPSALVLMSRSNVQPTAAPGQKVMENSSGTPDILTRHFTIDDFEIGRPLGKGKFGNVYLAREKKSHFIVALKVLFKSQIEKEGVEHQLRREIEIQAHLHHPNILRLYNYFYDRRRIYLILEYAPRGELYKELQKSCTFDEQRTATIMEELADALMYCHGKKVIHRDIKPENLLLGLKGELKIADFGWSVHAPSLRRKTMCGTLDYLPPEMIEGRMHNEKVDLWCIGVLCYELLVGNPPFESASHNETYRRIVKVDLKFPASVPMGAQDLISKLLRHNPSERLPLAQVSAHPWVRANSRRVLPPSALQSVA
# [15] = system: eIF-2-alpha kinase GCN2 (Homo sapiens), Q9P2K8 [S808G]; assay: Binding affinity to wild-type human partial length GCN2 kinase domain 2 (R585 to T1018 residues) S808G mutant expressed in bacterial expression system assessed as residual binding level at 10 uM by Kinomescan method relative to control
# [16] = target: Calcium/calmodulin-dependent protein kinase type IV (Homo sapiens) (UniProt Q16566); assay: Binding affinity to wild-type human partial length CAMK4 (A22 to A322 residues) expressed in bacterial expression system assessed as residual binding level at 10 uM by Kinomescan method relative to control
# [17] = target: Serine/threonine-protein kinase BRSK2 (Homo sapiens) (UniProt Q8IWQ3); assay: Binding affinity to wild-type human full length BRSK2 (M1 to L674 residues) expressed in bacterial expression system assessed as residual binding level at 10 uM by Kinomescan method relative to control
# [18] = target: Casein kinase I isoform alpha (Homo sapiens) (UniProt P48729); assay: Binding affinity to wild-type human partial length CSNK1A1 (M1 to L450 residues) expressed in mammalian expression system assessed as residual binding level at 10 uM by Kinomescan method relative to control
# Sequence of Casein kinase I isoform alpha (Homo sapiens) (P48729 2-337 limits assumed): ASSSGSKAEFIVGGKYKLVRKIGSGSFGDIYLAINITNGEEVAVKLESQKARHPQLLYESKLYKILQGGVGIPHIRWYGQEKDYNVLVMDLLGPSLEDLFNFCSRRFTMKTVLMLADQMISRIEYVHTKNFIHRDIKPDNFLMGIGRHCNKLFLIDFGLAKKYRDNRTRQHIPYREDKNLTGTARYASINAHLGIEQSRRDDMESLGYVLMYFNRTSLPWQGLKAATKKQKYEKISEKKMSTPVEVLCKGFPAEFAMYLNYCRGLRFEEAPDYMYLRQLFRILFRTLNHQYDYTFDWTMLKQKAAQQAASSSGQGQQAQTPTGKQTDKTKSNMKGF
# [19] = target: RAC-beta serine/threonine-protein kinase (Homo sapiens) (UniProt P31751); assay: Binding affinity to wild-type human partial length AKT2 expressed in bacterial expression system assessed as residual binding level at 10 uM by Kinomescan method relative to control
# [20] = target: Bone morphogenetic protein receptor type-1B (Homo sapiens) (UniProt O00238); assay: Binding affinity to wild-type human partial length BMPR1B (D178 to L502 residues) expressed in mammalian expression system assessed as residual binding level at 10 uM by Kinomescan method relative to control
# [21] = target: Atypical kinase COQ8B, mitochondrial (Homo sapiens) (UniProt Q96D53); assay: Binding affinity to wild-type human full length ADCK4 (M1 to S544 residues) expressed in bacterial expression system assessed as residual binding level at 10 uM by Kinomescan method relative to control
# [22] = target: Citron Rho-interacting kinase (Homo sapiens) (UniProt O14578); assay: Binding affinity to wild-type human partial length CIT (M68 to E432 residues) expressed in bacterial expression system assessed as residual binding level at 10 uM by Kinomescan method relative to control
# [23] = target: Receptor tyrosine-protein kinase erbB-2 (Homo sapiens) (UniProt P04626); assay: Binding affinity to wild-type human partial length ERBB2 (K646 to V1225 residues) expressed in mammalian expression system assessed as residual binding level at 10 uM by Kinomescan method relative to control
structure (smiles),measurement,setting,value
CC(C)N1C(=O)C(NCCCN(C)C)=C(c2cn(C)c3ccccc23)C1=O.Cl,Activity,[1],100%
same,Activity,[2],100%
same,Activity,[3],89%
same,Activity,[4],96%
same,Activity,[5],87%
same,Activity,[6],94%
same,Activity,[7],88%
same,Activity,[8],90%
same,IC50,HL-60,450 nM
same,Activity,[9],93%
same,Activity,[10],97%
same,Activity,[11],100%
same,Activity,[12],97%
same,Activity,[13],100%
same,Activity,[14],84%
same,Activity,[15],100%
same,Activity,[16],80%
same,Activity,[17],86%
same,Activity,[18],88%
same,Activity,[19],100%
same,Activity,[20],78%
same,Activity,[21],99%
same,Activity,[22],84%
same,Activity,[23],92%
